For 22 compounds, EC50 and IC50 results are on record in patent US20260070929A1, “METHODS AND COMPOSITIONS FOR MODULATING KRAS(G12D)” (Ranok Therapeutics (Hangzhou) Co. LTD., priority 2022, published 2026).

Assay [1] deals with A-427 lung carcinoma cells [heterozygous G12D]. Description: Cancer cell line proliferation (CellTiter-Glo), A-427. In kind it is cell-based. The following applies: Homo sapiens, A-427 cells, 72 hr treatment, read-out: A427 CTG (EC50). The procedure: (§1) The following cancer cell lines were employed: AGS gastric carcinoma [heterozygous G12D](ATCC, CRL-1739); A-427 lung carcinoma [heterozygous G12D](ATCC, HTB-53); ASPC1 pancreatic adenocarcinoma [homozygous G12D](ATCC, CRL-1682) and SW1990 pancreatic adenocarcinoma [homozygous G12D](ATCC CRL-2172). Cell lines were cultured essentially according to ATCC recommendations.
(§2) AGS, A-427, ASPC1, SW1990, and GP2D cells were plated in 96-well tissue culture plates at 4,000 cells/well and incubated at 37° C./5% CO2 for 72 hr in 100 μl of media. 3-fold serial dilutions of each test compound were prepared ranging from 20 μM to 1.02 nM. Each cell line was then treated with test compounds at various concentrations with a final concentration of 0.5% DMSO/well, and then incubated at 37° C./5% CO2 for 72 hr. 100 µl of CellTiter-Glo® Reagent (Promega Corporation, Madison, WI) was added to each well and processed according manufacturer's protocol. Results were analyzed and EC50 values were calculated in GraphPad 7 software.
A general note: Cellular ATP, detected with luciferase, serves as a proxy for viable cell number.

In the next assay the target is T1, KRAS(G12D)/SOS1 (Homo sapiens, UniProt P01116, G12D).
T1 construct: purchased Cisbio 63ADK000CB17PEH
T1 sequence (P01116 1-188 isoform P01116-2 G12D): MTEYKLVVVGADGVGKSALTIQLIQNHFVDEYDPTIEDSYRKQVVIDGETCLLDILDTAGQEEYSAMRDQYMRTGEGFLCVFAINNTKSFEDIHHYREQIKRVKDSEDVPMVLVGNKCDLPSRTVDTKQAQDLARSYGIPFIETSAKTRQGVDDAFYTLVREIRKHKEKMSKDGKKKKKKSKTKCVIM
Nature of the assay: KRAS(G12D)/SOS1 homogeneous time-resolved fluorescence (HTRF) assay. In kind it is binding. The following applies: absence of GTP; 4° C., 3 hr. The procedure:
Binding of test compounds to KRAS(G12D) target protein, which in turn blocks KRAS(G12D) interaction with the SOS1 protein, was measured in the absences of GTP by homogeneous time-resolved fluorescence using the KRAS-G12D/SOS1 Binding Assay Kit (Cisbio, 63ADK000CB17PEH), following the manufacturer's instructions, except as noted. 3-fold serial dilutions of each test compound were prepared ranging from 20 µM to 1.02 nM. The test compound was mixed and incubated with reaction components, incubated in a sealed plate at 4° C. for 3 hr and fluorescence was measured using a PerkinElmer Envision plate reader. The KRAS(G12D)-SOS1 IC50 values (the concentration of 50% of the maximal inhibition) were calculated using GraphPad Prism 7 software.
(Time-resolved FRET reads energy transfer from a long-lived donor to a nearby acceptor.)

The subject of assay [2] is AGS gastric carcinoma cells [heterozygous G12D]. Nature of the assay: Cancer cell line proliferation (CellTiter-Glo), AGS. In kind it is cell-based. The following applies: Homo sapiens, 72 hr treatment, read-out: AGS CTG (EC50). The procedure:
as §1, §2

For orientation: EC50 means the concentration needed to bring the measured effect to its halfway point. The IC50 is the concentration needed to halve the response being measured. Lower therefore signals greater potency. As for `CCc1cc(-c2nnc(C(=O)NCC(F)(F)F)n2-c2ccc(CN3CCN(C[C@H]4CC[C@@H](COc5nc(N6CC7CCC(C6)N7)c6cnc(-c7cc(C)cc8ccccc78)c(F)c6n5)N4C)CC3)cc2)c(O)cc1O` [Compound 73], the 50% effective concentration (EC50) in assay [1] and in assay [2] was 100 to 1000 nM in each case. The same compound had an IC50 at KRAS(G12D)/SOS1 of less than 100 nM.

Consider `CC(C)c1cc(C(=O)N2Cc3ccc(CN4CCN([C@H]5C[C@@H](COc6nc(N7CC8CNC(C8)C7)c7cnc(-c8cc(O)cc9ccccc89)c(F)c7n6)N(C)C5)CC4)cc3C2)c(O)cc1O` (stereo partly drawn) [Compound 74], for which the concentration giving a half-maximal response (EC50) in assay [1] and in assay [2] was 100 to 1000 nM throughout. At KRAS(G12D)/SOS1, this compound showed an IC50 of more than 1000 nM.

For the compound `C#Cc1cccc2cccc(-c3ncc4c(N5CC6CCC(C5)N6)nc(OCCN5CCN(CCN(CC)C(=O)c6cc(C(C)C)c(O)cc6O)CC5)nc4c3F)c12` [Compound 75], the EC50 in assay [1] and in assay [2] was more than 1000 nM each time. Further, at KRAS(G12D)/SOS1, the half-inhibitory concentration (IC50) is 100 to 1000 nM.

In the case of `CC(C)c1cc(C(=O)N2Cc3ccc(CN4CCN(C[C@H]5CC[C@@H](COc6nc(N7CC8CCC(C7)N8)c7cnc(-c8cccc9cccc(F)c89)c(F)c7n6)N5C)CC4)cc3C2)c(O)cc1O` [Compound 76], the EC50 in assay [1] and in assay [2] was 100 to 1000 nM in each case. The same compound returned an IC50 on KRAS(G12D)/SOS1 of 100 to 1000 nM.

Take `CCNC(=O)c1nnc(-c2cc(C(C)C)c(O)cc2O)n1-c1ccc(CN2CCN([C@H]3C[C@@H](COc4nc(N5CC6CCC(C5)N6)c5cnc(-c6cccc7cccc(F)c67)c(F)c5n4)N(C)C3)CC2)cc1` [Compound 77]: the EC50 in assay [1] is 100 to 1000 nM; in assay [2] it was less than 100 nM. In addition, the IC50 on KRAS(G12D)/SOS1 lay in the range of 100 to 1000 nM.

Regarding `Cc1c(F)cccc1-c1ncc2c(N3CC4CCC(C3)N4)nc(OC[C@@H]3C[C@H](N4CCN(Cc5ccc(-n6c(C(=O)NC(C)C(F)(F)F)nnc6-c6cc(C(C)C)c(O)cc6O)cc5)CC4)CN3C)nc2c1F` (stereo partly drawn) [Compound 78], the 50% effective concentration (EC50) in assay [1] and in assay [2] was 100 to 1000 nM in each case. This compound displayed an IC50 at KRAS(G12D)/SOS1 of more than 1000 nM.

For `CCc1cc(-c2nnc(C(=O)NCC(F)(F)F)n2-c2ccc(CN3CCN([C@H]4C[C@@H](COc5nc(N6CC7CCC(C6)N7)c6cnc(-c7cccc(F)c7C)c(F)c6n5)N(C)C4)CC3)cc2)c(O)cc1O` [Compound 79], the EC50 in assay [1] and in assay [2] was 100 to 1000 nM throughout. For the same compound, the 50% inhibitory concentration (IC50) against KRAS(G12D)/SOS1 was more than 1000 nM.

As for `C#Cc1cccc2cccc(-c3ncc4c(N5CC6CCC(C5)N6)nc(OC[C@@H]5C[C@H](N6CCN(CCN(CC)C(=O)c7cc(C(C)C)c(O)cc7O)CC6)CN5C)nc4c3F)c12` [Compound 80], the EC50 in assay [1] and in assay [2] was more than 1000 nM each time. For the same compound, the half-inhibitory concentration (IC50) on KRAS(G12D)/SOS1 was less than 100 nM.

Take `CCc1cc(-c2nnc(C(=O)NCC(F)(F)F)n2-c2ccc(CN3CCN([C@H]4C[C@@H](COc5nc(N6CC7CCC(C6)N7)c6cnc(-c7cccc(C)c7C)c(F)c6n5)N(C)C4)CC3)cc2)c(O)cc1O` [Compound 81]: the half-maximal effective concentration (EC50) in assay [1] and in assay [2] was 100 to 1000 nM throughout. Besides, on KRAS(G12D)/SOS1, the half-inhibitory concentration (IC50) is more than 1000 nM.

In the case of `Cc1cccc(-c2ncc3c(N4CC5CCC(C4)N5)nc(OC[C@@H]4C[C@H](N5CCN(Cc6ccc(-n7c(C(=O)NC(C)C(F)(F)F)nnc7-c7cc(C(C)C)c(O)cc7O)cc6)CC5)CN4C)nc3c2F)c1C` (stereo partly drawn) [Compound 82], the concentration for a half-maximal effect (EC50) in assay [1] and in assay [2] was 100 to 1000 nM throughout. Besides, the IC50 on KRAS(G12D)/SOS1 was more than 1000 nM.

On to `CCNC(=O)c1nnc(-c2cc(C(C)C)c(O)cc2O)n1-c1ccc(CN2CCN([C@H]3C[C@@H](COc4nc(N5CC6CNC(C6)C5)c5cnc(-c6cc(O)cc7ccccc67)c(F)c5n4)N(C)C3)CC2)cc1` (stereo partly drawn) [Compound 85], for which the EC50 in assay [1] and in assay [2] was 100 to 1000 nM each time. Besides, the IC50 on KRAS(G12D)/SOS1 was more than 1000 nM.

For `C#Cc1cccc2cc(O)cc(-c3ncc4c(N5CC6CCC(C5)N6)nc(OC[C@@H]5C[C@H](N6CCN(Cc7ccc8c(c7)CN(C(=O)c7cc(C(C)C)c(O)cc7O)C8)CC6)CN5C)nc4c3F)c12` [Compound 86], the EC50 in assay [1] and in assay [2] was 100 to 1000 nM in each case. At KRAS(G12D)/SOS1, this compound showed a 50% inhibitory concentration (IC50) of less than 100 nM.

As to `C#Cc1cccc2cc(O)cc(-c3ncc4c(N5CC6CCC(C5)N6)nc(OC[C@@H]5C[C@H](N6CCN(Cc7ccc(-n8c(C(=O)NC(C)C)nnc8-c8cc(C(C)C)c(O)cc8O)cc7)CC6)CN5C)nc4c3F)c12` [Compound 87], the concentration giving a half-maximal response (EC50) in assay [1] and in assay [2] was 100 to 1000 nM each time. Moreover, the IC50 at KRAS(G12D)/SOS1 was less than 100 nM.

Regarding `CC(C)NC(=O)c1nnc(-c2cc(C(C)C)c(O)cc2O)n1-c1ccc(CN2CCN([C@H]3C[C@@H](COc4nc(N5CC6CCC(C5)N6)c5cnc(-c6ccccc6C(F)(F)F)c(F)c5n4)N(C)C3)CC2)cc1` [Compound 88], the results for the EC50 in assay [1] and in assay [2] were 100 to 1000 nM and less than 100 nM, respectively. In addition, on KRAS(G12D)/SOS1, the IC50 is more than 1000 nM.

Take `CCNC(=O)c1nnc(-c2cc(C(C)C)c(O)cc2O)n1-c1ccc(CN2CCC(C(=O)N3CCN([C@H]4C[C@@H](COc5nc(N6CC7CCC(C6)N7)c6cnc(-c7ccccc7C(F)(F)F)c(F)c6n5)N(C)C4)CC3)CC2)cc1` [Compound 89]: the concentration giving a half-maximal response (EC50) in assay [1] and in assay [2] was less than 100 nM each time. This compound also returned a concentration for half-maximal inhibition (IC50) against KRAS(G12D)/SOS1 of more than 1000 nM.

As for `CC(C)c1cc(C(=O)N2Cc3ccc(CN4CCC(C(=O)N5CCN([C@H]6C[C@@H](COc7nc(N8CC9CCC(C8)N9)c8cnc(-c9ccccc9C(F)(F)F)c(F)c8n7)N(C)C6)CC5)CC4)cc3C2)c(O)cc1O` [Compound 91], the concentration for a half-maximal effect (EC50) in assay [1] and in assay [2] was 100 to 1000 nM in each case. The half-inhibitory concentration (IC50) at KRAS(G12D)/SOS1 is more than 1000 nM.

As to `CC(C)c1cc(C(=O)N2Cc3ccc(CN4CCC(C(=O)N5CCN([C@H]6C[C@@H](COc7nc(N8CC9CCC(C8)N9)c8cnc(-c9cccc%10cccc(F)c9%10)c(F)c8n7)N(C)C6)CC5)CC4)cc3C2)c(O)cc1O` [Compound 92], the 50% effective concentration (EC50) in assay [1] and in assay [2] was 100 to 1000 nM in each case. The compound further showed a concentration for half-maximal inhibition (IC50) at KRAS(G12D)/SOS1 of 100 to 1000 nM.

With `CC(C)c1cc(-c2nnc(C(=O)NC(C)C(F)(F)F)n2-c2ccc(CN3CCN([C@H]4C[C@@H](COc5nc(N6CC7CCC(C6)N7)c6cnc(-c7cccc8cccc(F)c78)c(F)c6n5)N(C)C4)CC3)cc2)c(O)cc1O` (stereo partly drawn) [Compound 93], the concentration giving a half-maximal response (EC50) in assay [1] is 100 to 1000 nM; in assay [2] it was less than 100 nM. On KRAS(G12D)/SOS1, this compound registered an IC50 of 100 to 1000 nM.

For `Cc1cccc2cccc(-c3ncc4c(N5CC6CCC(C5)N6)nc(OC[C@@H]5CC[C@H](CN6CCN(C(=O)C7CCN(Cc8ccc9c(c8)CN(C(=O)c8cc(C(C)C)c(O)cc8O)C9)CC7)CC6)N5C)nc4c3F)c12` [Compound 94], the EC50 in assay [1] and in assay [2] was 100 to 1000 nM in each case. The compound also returned an IC50 against KRAS(G12D)/SOS1 of 100 to 1000 nM.

With `CCNC(=O)c1nnc(-c2cc(C(C)C)c(O)cc2O)n1-c1ccc(CN2CCN(C[C@H]3C[C@@H](COc4nc(N5CC6CCC(C5)N6)c5cnc(-c6cc(O)cc7ccccc67)c(F)c5n4)N(C)C3)CC2)cc1` [Compound 95], the figures for the EC50 in assay [1] and in assay [2] were 100 to 1000 nM and less than 100 nM, respectively. This compound registered a half-maximal inhibitory concentration (IC50) against KRAS(G12D)/SOS1 of less than 100 nM.

Take `C#Cc1cccc2cc(O)cc(-c3ncc4c(N5CC6CCC(C5)N6)nc(OC[C@@H]5C[C@H](N6CCN(Cc7ccc(-n8c(C(=O)NCC)nnc8-c8cc(C(C)C)c(O)cc8O)cc7)CC6)CN5C)nc4c3F)c12` [Compound 96]: the concentration for a half-maximal effect (EC50) in assay [1] and in assay [2] was 100 to 1000 nM throughout. In addition, on KRAS(G12D)/SOS1, the concentration for half-maximal inhibition (IC50) was less than 100 nM.

With `C#Cc1cccc2cc(O)cc(-c3ncc4c(N5CC6CCC(C5)N6)nc(OC[C@@H]5C[C@H](N6CCN(C(=O)C7CCN(Cc8ccc9c(c8)CN(C(=O)c8cc(C(C)C)c(O)cc8O)C9)CC7)CC6)CN5C)nc4c3F)c12` [Compound 97], the concentration giving a half-maximal response (EC50) in assay [1] and in assay [2] was 100 to 1000 nM each time. At KRAS(G12D)/SOS1, this compound returned a concentration for half-maximal inhibition (IC50) of less than 100 nM.
